These results are taken from patent US5393761A, “3-arylindole compounds” (H. Lundbeck A/S, priority 1990, dated 1995).

The target in assay [1] is T1, serotonin S2 (5-HT2) receptors in rat cortex (Rattus norvegicus, UniProt P14842).
T1 construct: Serotonin S2 (5-HT2) receptors in membranes from rat; from tissue; host or cells: cerebral cortex membranes of male Wistar rats (printed 'conical tissue', a misprint for cortical)
The experiment in a line: Inhibition of ^3H-ketanserin binding to serotonin S2 (5-HT2) receptors in rat cortex in vitro. The following applies: 0.5 nM ^3H-ketanserin, rat cortex membranes, 37° C., 30 min. The procedure: Method in Hyttel, Pharmacology & Toxicology, 61, 126-129, 1987.
Male Wistar (Mol:Wist) rats (125-250 g) are sacrificed and conical tissue is dissected and weighed. The tissue is homogenized (Ultra Turrax, 10 sec.) in 10 ml of ice-cold 50 mM tris buffer pH 7.7 (at 25° C.). The centrifuge glassware used in this step has been rinsed by sonication for 10 min. in ethanol. The homogenate is centrifuged twice at 20,000 g for 10 min. at 4° C. with rehomogenization of the pellet in 10 ml ice-cold buffer. The final pellet is homogenized in 500 vol (w/v)ice-cold buffer.
Incubation tubes kept on ice in triplicate receive 100 μl Of drug solution in water (or water for total binding) and 2000 μl of tissue suspension (final tissue content corresponds to 4 mg original tissue). […] After incubation for 30 min. the samples are filtered under vacuum (0-50 mBar) through Whatman GF/F filters (25 mm). The tubes are rinsed with 5 ml ice-cold buffer which are then poured on the filters. Thereafter, the filters are washed with 2×5 ml of buffer. The filters are placed in counting vials and 4 ml of appropriate scintillation fluid (e.g. Picofluor ™15) are added. After shaking for 1 h and storage 2 hrs in the dark the content of radioactivity is determined by liquid scintillation counting. Specific binding is obtained by subtracting the nonspecific binding in the presence of 1 μM mianserin. For determination of the inhibition of binding five concentrations of drugs covering 3 decades are used.
The IC50 value is determined as the concentration at which the binding is 50% of the total binding in control samples minus the nonspecific binding in the presence of 1 μM mianserin.

For assay [2], the target named is dopamine D-2 receptors in rat corpus striatum (Rattus norvegicus, UniProt P61169). The assay can be described thus: Inhibition of ^3H-spiperone (spiroperidol) binding to dopamine D-2 receptors in rat corpus striatum in vitro. The following applies: 0.5 nM ^3H-spiperone, rat striatum membranes, 37° C., 10 min. On the procedure: By this method the inhibition by drugs of the binding of ^3 H-spiperone (=^3 H-spiroperidol) (0.5 nM) to dopamine D-2 receptors in membranes from rat corpus striatum is determined in vitro. Method and results in Hyttel & Larsen, J. Neurochem, 44, 1615-1622, 1985).
Male Wistar (Mol:Wistar) rats (125-250 g) are sacrificed and striatal tissue is dissected and weighed. The tissue is homogenized (Ultra Turrax, 10 sec.) in 10 ml of ice-cold 50 mM K-phosphate buffer pH 7.4 (at 25° C.). The homogenate is centrifuged twice at 20,000 g for 10 min. at 4° C. with rehomogenization of the pellet in 10 ml ice-cold buffer. The final pellet is homogenized in 1300 vol (w/v) ice-cold buffer.
Incubation tubes kept on ice in triplicate receive 100 μl of drug solution in water (or water for total binding) and 4000 μl Of tissue suspension (final tissue content corresponds to 3.08 mg original tissue). The binding experimental is initiated by addition of 100 μl of ^3 H-spiperone (final concentration 0.5 nM) and by placing the tubes in a 37° C. water bath. After incubation for 10 min. the samples are filtered under vacuum (0-50 mBar) through Whatman GF/F filters (25 mm). The tubes are rinsed with 5 ml ice-cold buffer which are then poured on the filters. Thereafter, the filters are washed with 2×5 ml of buffer. The filters are placed in counting vials and 4 ml of appropriate scintillation fluid (e.g. Picofluor ™15) are added. After shaking for 1 h and storage 2 hrs in the dark the content of radioactivity is determined by liquid scintillation counting. Specific binding is obtained by subtracting the nonspecific binding in the presence of 10 μM of 6,7-ADTN.
For determination of the inhibition of binding five concentrations of drugs covering 3 decades are used.
The measured cpm are plotted against drug concentration on semilogarithmic paper and the best fitting S-shaped curve is drawn. […] England, specific activity 15-25 Ci/mmol.

Structures are written as SMILES. Structures can show the parent of a compound that is named as a salt.

dopamine D-2 receptors in rat corpus striatum, sequence (P61169 whole entry): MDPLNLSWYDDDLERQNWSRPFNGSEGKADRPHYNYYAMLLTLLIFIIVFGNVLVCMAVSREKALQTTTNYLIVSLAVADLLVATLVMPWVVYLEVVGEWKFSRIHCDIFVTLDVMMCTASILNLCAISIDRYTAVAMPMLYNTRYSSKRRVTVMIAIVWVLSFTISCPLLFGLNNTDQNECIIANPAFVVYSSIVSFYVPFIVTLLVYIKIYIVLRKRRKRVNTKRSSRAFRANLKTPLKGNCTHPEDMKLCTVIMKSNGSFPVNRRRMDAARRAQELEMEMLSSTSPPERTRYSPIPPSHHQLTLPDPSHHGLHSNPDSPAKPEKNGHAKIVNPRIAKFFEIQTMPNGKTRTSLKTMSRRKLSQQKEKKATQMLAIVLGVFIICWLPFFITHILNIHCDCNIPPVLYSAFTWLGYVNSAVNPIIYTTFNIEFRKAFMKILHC
T1 sequence (P14842 whole entry): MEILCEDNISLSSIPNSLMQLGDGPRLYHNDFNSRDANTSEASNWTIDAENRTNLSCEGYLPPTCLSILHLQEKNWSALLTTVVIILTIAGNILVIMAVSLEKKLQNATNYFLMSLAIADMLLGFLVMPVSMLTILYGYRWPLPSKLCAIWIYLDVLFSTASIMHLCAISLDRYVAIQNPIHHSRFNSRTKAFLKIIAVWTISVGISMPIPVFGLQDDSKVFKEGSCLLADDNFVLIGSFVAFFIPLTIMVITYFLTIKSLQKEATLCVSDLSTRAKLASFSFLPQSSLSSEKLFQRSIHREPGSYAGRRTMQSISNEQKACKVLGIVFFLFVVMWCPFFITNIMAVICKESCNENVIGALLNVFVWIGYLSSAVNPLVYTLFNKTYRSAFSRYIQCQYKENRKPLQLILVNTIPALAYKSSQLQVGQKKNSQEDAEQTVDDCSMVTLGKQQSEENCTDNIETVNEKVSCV

On to `CC(C)N1CCN(CCN2CCC(n3cc(-c4ccc(F)cc4)c4cc(Cl)ccc43)CC2)C1=O` [Compound 4e], for which the results for the IC50 in assay [1] and in assay [2] were 5.4 nM and 570 nM, respectively.
The like results for `CC(C)N1CCN(CCN2CCC(n3cc(-c4ccc(F)cc4)c4cc(C(F)(F)F)ccc43)CC2)C1=O` [Compound 4v, 3-(4-Fluorophenyl)-1-[1-[2-[3-(2-propyl)imidazolidin-2-on-1-yl]ethyl]-4piperidyl]-5-trifluoromethyl-1H-indole] were, in that order, 11 nM and above 1000 nM.
The like results for `O=C1NCCN1CCN1CCC(n2c(Br)c(-c3ccc(F)cc3)c3ccccc32)CC1` [Compound 4x, 2-Bromo-3-(4-fluorophenyl)-1-[1-[2-(imidazolidin-2-on-1-yl)ethyl]-4-piperidyl]-1H-indole] were, in that order, 11 nM and 650 nM.
The like results for `O=C1NCCN1CCN1CCC(n2cc(-c3ccccc3)c3cc(Cl)ccc32)CC1` [Compound 4p, 5-Chloro-3-phenyl-1-[1-[2-(imidazolidin-2-on-1-yl)ethyl]-4-piperidyl]-1H-indole] were, in that order, 29 nM and 2800 nM.
In the case of `O=C1NCCN1CCN1CCC(n2cc(-c3ccc(F)cc3)c3cc(C(F)(F)F)ccc32)CC1` [Compound 7b, 3-(4-Fluorophenyl)-1-[1-[2-(imidazolidin-2-on-1-yl)ethyl]-4-piperidyl]-5-trifluoromethyl-1H-indole], the IC50 (usually the concentration at which inhibition is half-maximal) in assay [1] was 6.2 nM; in assay [2], above 1000 nM.
As for `CN1CCN(CCN2CCC(n3cc(-c4ccc(F)cc4)c4cc(Cl)ccc43)CC2)C1=O` [Compound 4f, 5-Chloro-3-(4-fluorophenyl)-1-[1-[2-(3-methylimidazolidin-2-on-1-yl)ethyl]-piperidyl]-1H-indole], the figures for the IC50 in assay [1] and in assay [2] were 1.4 nM and 550 nM, respectively.
The like results for `Cc1ccc2c(c1)c(-c1ccc(F)cc1)cn2C1CCN(C(C)C)CC1` [Compound 4s, 3-(4-Fluorophenyl)-5-methyl-1-[1-(2-propyl)-4-piperidyl]-lH-indole, maleate] were, in that order, 12 nM and 330 nM.
The like results for `Cc1ccc2c(c1)c(-c1ccc(F)cc1)cn2C1CCN(CCN2CCN(C)C2=O)CC1` [Compound 4i, 3-(4-Fluorophenyl)-5-methyl-1-[1-[2-(3-methylimidazolidin-2-on-1-yl)ethyl]-4-piperidyl]-1H-indole, fumarate] were, in that order, 1.4 nM and 680 nM.
Take `O=C1NCCN1CCN1CCC(n2cc(-c3ccc(F)cc3)c3cc(Cl)ccc32)CC1` [Compound 4d, 5-Chloro-3-(4-fluorophenyl)-1-[1-[2-(imidazolidin-2-on-1-yl)ethyl]-4-piperidyl]-1H-indole]: the IC50 in assay [1] was 5.7 nM; in assay [2] it was 410 nM.
Consider `O=C1NCCN1CCN1CCC(n2cc(-c3ccc(F)cc3)c3cc(F)ccc32)CC1` [Compound 4m, 5-Fluoro-3-(4-fluorophenyl)-1-[1-[2-(imidazolidin-2-on-1-yl)ethyl]-4-piperidyl]-1H-indole], for which the figures for the IC50 in assay [1] and in assay [2] were 3.2 nM and 250 nM, respectively.
As to `O=C1NCCN1CCN1CCC(n2cc(-c3ccc(F)cc3)c3ccc(Cl)cc32)CC1` [Compound 4b, 6-Chloro-3-(4-fluorophenyl)-1-[1-[2-(imidazolidin-2-on-1-yl)ethyl]-4-piperidyl]-1H-indole], the half-maximal inhibitory concentration (IC50) in assay [1] turned out to be 1.9 nM; in assay [2], 37 nM.
The like results for `O=C1NCCN1CCN1CCC(N2CC(c3ccc(F)cc3)c3cc(F)ccc32)CC1` (centres unmarked) [Compound 4r, 2,3-Dihydro-3-(4-fluorophenyl)-1-[1-[2-(imidazolidin-2-on-1-yl)ethyl]-4-piperidyl]-5-fluoro-1H-indole] were, in that order, 3.4 nM and 230 nM.
The like results for `Cc1c(-c2ccccc2)c2cc(Cl)ccc2n1C1CCN(C)CC1` [Compound 9b, 5-Chloro-2-methyl-3-phenyl-1-(1-methyl-4-piperidyl)-1H-indole] were, in that order, 17 nM and 2900 nM.
